Source: publication PMC9271048, “Probing strigolactone perception mechanisms with rationally designed small-molecule agonists stimulating germination of root parasitic weeds” (Nature Communications, 2022)
Like-named read-outs stand apart in the source and are kept apart here.

Key:
[1] = Chemical reactivity analysis (HPLC, methanol/PBS pH 7.4); assay type: physicochemical; conditions: methanol/phosphate-buffered saline mixture; Supplementary Fig. 10 source data; methanol/PBS pH 7.4, 26 °C; read-out: half-life time (t1/2), source data average (converted)
Procedure: Chemical reactivity is an important factor in the bioactivity of natural and synthetic SLs.
One hundred twenty microliters of sample solution was added to a solution of PBS (10 mM, pH 7.4, 810 μL) and methanol (270 μL). The solution was stirred vigorously for 30 s and then transferred to HPLC vial, and the vial was stored at 26 ± 1 °C. […] The analytical column was Extend-C18 (4.6 mm × 150 mm × 5 μm). The mobile phases were CH3CN and H2O (containing 0.1% HCO2H), VCH3CN:VH2O = 50:50, with a flow rate of 1 mL/min, and an injection volume of 5 μL. The percentage of remaining compounds in the solution was calculated from the peak area. The half-life times (t1/2) of samples were calculated.

[2] = target: T1, ShHTL7 (Striga hermonthica, UniProt A0A0M3PNA2); assay: biochemical; assay type: binding
Outline: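 Surface plasmon resonance was run at 25 °C on ShHTL7 immobilized by amine coupling, using phosphate-buffered saline with 0.05% P20 and 0.5% DMSO. Each injection had 1 min association and 1 min dissociation, with a 50 μM screen followed by concentration series. KD was derived by kinetic analysis or steady-state affinity.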

[3] = target: T1, ShHTL7; assay: ShHTL7-hydrolysis reaction analysis (HPLC); assay type: biochemical; conditions: 10 μM compound, 30 °C, 30 min; for relative percentage of hydrolysis by ShHTL7, source data average: Supplementary Figs. 11, 20a, 24a
Outline: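 Compounds at 10 μM were incubated with 10 μg recombinant ShHTL7 or its mutants in PBS (pH 7.3) at 30 °C for 30 min, then quenched with methanol. The remaining compound was quantified by HPLC, and hydrolysis was expressed relative to a protein-free buffer control (n = 3).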

[4] = test system: ShHTLs (10 HTL proteins in S. hermonthica); assay: YLG-based competition assay on HTL proteins of S. hermonthica; assay type: biochemical, Striga hermonthica; conditions: Supplementary Fig. 27
Text: In P. aegyptiaca, 5 KAI2s have been proposed as the SL receptors for the regulation of seed germination. […] The high sequence similarity may explain the consistency of these compounds in inducing germination in both S. hermonthica and P. aegyptiaca.
The excitation and emission wavelengths of YLG are 480 and 520 nm, respectively. We used a fluorescence spectrophotometer (CARY Eclipse) to detect the fluorescence intensity change of YLG during the enzymatic hydrolysis assay process. All the testing compounds and YLG were dissolved in DMSO and prepared as stock solutions just before use. […] The changes of fluorescence at 520 nm of each well were recorded every 1 min for 30 min. Using the reaction mixture without adding enzyme and tested compounds as the background control. After subtracting the background hydrolysis, a linear fluorescence increase in 8 min was used for further inspection. The IC50 values were determined via fitting relative inhibition percentages with the varying concentrations of compounds in Microsoft Excel.
Supplementary Fig. 27. Binding of compounds 4a, (R)- and (S)-4a, and 4g-i to the HTL proteins in S. hermonthica and KAI2 protein homologs in P. aegyptiaca. In the competitive inhibitory activity assay, YLG (3 µM) was used as the fluorogenic substrate. Error bar indicates SD (n = 3 biologically independent experiments).
(1 picture or pasted object on this page, not shown here)

[5] = ShHTL2, YLG competition, read-out: IC50, replicate 1
[6] = ShHTL2, YLG competition, read-out: IC50, replicate 2
[7] = ShHTL2, YLG competition, read-out: IC50, replicate 3
[8] = ShHTL2, average of 3 replicates, read-out: IC50, average
[9] = ShHTL3, YLG competition, read-out: IC50, replicate 1
[10] = ShHTL3, YLG competition, read-out: IC50, replicate 2
[11] = ShHTL3, YLG competition, read-out: IC50, replicate 3
[12] = ShHTL3, average of 3 replicates, read-out: IC50, average
[13] = ShHTL4, YLG competition, read-out: IC50, replicate 1
[14] = ShHTL4, YLG competition, read-out: IC50, replicate 2
[15] = ShHTL4, YLG competition, read-out: IC50, replicate 3
[16] = ShHTL4, average of 3 replicates, read-out: IC50, average
[17] = ShHTL5, YLG competition, read-out: IC50, replicate 1
[18] = ShHTL5, YLG competition, read-out: IC50, replicate 2
[19] = ShHTL5, YLG competition, read-out: IC50, replicate 3
[20] = ShHTL5, average of 3 replicates, read-out: IC50, average
[21] = ShHTL6, YLG competition, read-out: IC50, replicate 1
[22] = ShHTL6, YLG competition, read-out: IC50, replicate 2
[23] = ShHTL6, YLG competition, read-out: IC50, replicate 3
[24] = ShHTL6, average of 3 replicates, read-out: IC50, average
[25] = ShHTL8, YLG competition, read-out: IC50, replicate 1
[26] = ShHTL8, YLG competition, read-out: IC50, replicate 2
[27] = ShHTL8, YLG competition, read-out: IC50, replicate 3
[28] = ShHTL8, average of 3 replicates, read-out: IC50, average
[29] = ShHTL9, YLG competition, read-out: IC50, replicate 1
[30] = ShHTL9, YLG competition, read-out: IC50, replicate 2
[31] = ShHTL9, YLG competition, read-out: IC50, replicate 3
[32] = ShHTL9, average of 3 replicates, read-out: IC50, average
[33] = ShHTL10, YLG competition, read-out: IC50, replicate 1
[34] = ShHTL10, YLG competition, read-out: IC50, replicate 2
[35] = ShHTL10, YLG competition, read-out: IC50, replicate 3
[36] = ShHTL10, average of 3 replicates, read-out: IC50, average
[37] = ShHTL11, YLG competition, read-out: IC50, replicate 1
[38] = ShHTL11, YLG competition, read-out: IC50, replicate 2
[39] = ShHTL11, YLG competition, read-out: IC50, replicate 3
[40] = ShHTL11, average of 3 replicates, read-out: IC50, average

T1 sequence (A0A0M3PNA2 entry or part of it): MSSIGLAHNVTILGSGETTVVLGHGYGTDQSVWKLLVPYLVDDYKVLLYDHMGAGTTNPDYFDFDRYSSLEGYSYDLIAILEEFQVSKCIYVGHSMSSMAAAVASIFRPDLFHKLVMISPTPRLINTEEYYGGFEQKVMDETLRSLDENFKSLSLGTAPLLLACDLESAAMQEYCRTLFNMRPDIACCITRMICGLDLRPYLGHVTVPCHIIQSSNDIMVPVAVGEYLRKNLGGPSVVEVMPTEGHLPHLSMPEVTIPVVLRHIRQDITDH

| SMILES | half-life at 0.5 mM [1] [h] | hydrolysis by ShHTL7 [3] [%] | relative percentage of hydrolysis by ShHTL7, source data average [3] [%] | IC50 [4, 5] [µM] | IC50 [4, 6] [µM] | IC50 [4, 7] [µM] | IC50 [4, 8] [µM] | IC50 [4, 9] [µM] | IC50 [4, 10] [µM] | IC50 [4, 11] [µM] | IC50 [4, 12] [µM] | IC50 [4, 13] [µM] | IC50 [4, 14] [µM] | IC50 [4, 15] [µM] | IC50 [4, 16] [µM] | IC50 [4, 17] [µM] | IC50 [4, 18] [µM] | IC50 [4, 19] [µM] | IC50 [4, 20] [µM] | IC50 [4, 21] [µM] | further results |
| --- | --- | --- | --- | --- | --- | --- | --- | --- | --- | --- | --- | --- | --- | --- | --- | --- | --- | --- | --- | --- | --- |
| CC1=C[C@@H](OC(=O)N2CCN(C(=O)COc3ccc(Br)cc3C)CC2)OC1=O [(R)-4a] | 6.99 | 3.1 | 3.081 | 69.7 | 64.8 | 63.8 | 66.1 | 62.1 | 76.7 | 63.2 | 67.3 | 22.9 | 19.8 | 20.3 | 21 | 48.9 | 46.9 | 35.9 | 43.9 | > 100 | Kd ([2]; Supplementary Table 7, binding affinities between ShHTL7 and agonists by SPR, read-out: KD/μM): 1.69 ± 0.04 µM; IC50 [4, 22]: > 100 µM; IC50 [4, 23]: > 100 µM; IC50 [4, 24]: > 100 µM; IC50 [4, 25]: 58.4 µM; IC50 [4, 26]: 53.3 µM; IC50 [4, 27]: 69.9 µM; IC50 [4, 28]: 60.5 µM; IC50 [4, 29]: 50.2 µM; IC50 [4, 30]: 43.9 µM; IC50 [4, 31]: 47.8 µM; IC50 [4, 32]: 47.3 µM; IC50 [4, 33]: 59.5 µM; IC50 [4, 34]: 43.4 µM; IC50 [4, 35]: 54.6 µM; IC50 [4, 36]: 52.5 µM; IC50 [4, 37]: > 100 µM; IC50 [4, 38]: > 100 µM; IC50 [4, 39]: > 100 µM; IC50 [4, 40]: > 100 µM |
| CC1=CC(OC(=O)N2CCN(C(=O)COc3ccc(Br)cc3C)CC2)OC1=O (centres unmarked) [4a] | 3.38 | 36.4 | 36.438 | 56.1 | 49 | 62.1 | 55.8 | 43.3 | 41.4 | 44.5 | 43 | 6.23 | 4.7 | 3.91 | 4.95 | 18.6 | 15.2 | 13.3 | 15.7 | 28.4 | Kd [2]: 2.07 ± 0.51 µM; IC50 [4, 22]: 23.6 µM; IC50 [4, 23]: 18.4 µM; IC50 [4, 24]: 23.5 µM; IC50 [4, 25]: 14.7 µM; IC50 [4, 26]: 15.3 µM; IC50 [4, 27]: 21.5 µM; IC50 [4, 28]: 17.2 µM; IC50 [4, 29]: 20.4 µM; IC50 [4, 30]: 21.8 µM; IC50 [4, 31]: 26.6 µM; IC50 [4, 32]: 22.9 µM; IC50 [4, 33]: 31.1 µM; IC50 [4, 34]: 39.7 µM; IC50 [4, 35]: 31 µM; IC50 [4, 36]: 33.9 µM; IC50 [4, 37]: 9.32 µM; IC50 [4, 38]: 9.73 µM; IC50 [4, 39]: 13.1 µM; IC50 [4, 40]: 10.7 µM |
